# Laboratory results reported in ChEMBL document CHEMBL1126778, “Adenosine A1 antagonists. 3. Structure-activity relationships on amelioration against scopolamine- or N6-((R)-phenylisopropyl)adenosine-induced cognitive disturbance” (J Med Chem, 1993).
# Legend:
# Rattus norvegicus [1] = experiment: Retention time in Scopolamine induced avoidance test (performed in rat) for antagonistic activity after p.o. administration of 0.08 mg/kg; type: functional, organism-based; parameters: dose 0.08 mg/kg
# Mus musculus [2] = experiment: Retention time in (R)-PIA) induced avoidance test (performed in mice) for antagonistic activity after peroral administration of 0.02 mg/kg
# Rattus norvegicus [3] = experiment: Retention time in Scopolamine induced avoidance test (performed in rat) for antagonistic activity after peroral administration of 1.25 mg/kg; type: functional, organism-based; parameters: dose 1.25 mg/kg
# Rattus norvegicus [4] = experiment: Retention time in Scopolamine induced avoidance test (performed in […]) for antagonistic activity after peroral administration of 5 mg/kg; type: functional, organism-based; parameters: dose 5 mg/kg
# Mus musculus [5] = experiment: Acquisition time in (R)-PIA) induced avoidance test (performed in mice) for antagonistic activity after p.o. administration of 0.31 mg/kg; type: functional; conditions: route oral
# Rattus norvegicus [6] = experiment: Acquisition time in Scopolamine induced avoidance test (performed in rat) for antagonistic activity after p.o. administration of 0.31 mg/kg; type: functional; conditions: route oral
# Mus musculus [7] = experiment: etention time in (R)-PIA) induced avoidance test (performed in mice) for antagonistic activity after peroral administration of 0.31 mg/kg; type: functional, organism-based; parameters: dose 0.31 mg/kg
# Rattus norvegicus [8] = experiment: Acquisition time in Scopolamine induced avoidance test (performed in rat) for antagonistic activity after peroral administration of 20 mg/kg; type: functional; conditions: route oral
# Rattus norvegicus [9] = experiment: Retention time in Scopolamine induced avoidance test (performed in rat) for antagonistic activity after peroral administration of 20 mg/kg; type: functional, organism-based; parameters: dose 20 mg/kg
# Rattus norvegicus [10] = experiment: Retention time in Scopolamine induced avoidance test (performed in rat) for antagonistic activity after p.o. administration of 0.31 mg/kg; type: functional, organism-based; parameters: dose 0.31 mg/kg
# Mus musculus [11] = experiment: Retention time in (R)-PIA) induced avoidance test (performed in mice) for antagonistic activity after peroral administration of 0.08 mg/kg; type: functional, organism-based; parameters: dose 0.08 mg/kg
# Mus musculus [12] = experiment: Acquisition time in (R)-PIA) induced avoidance test (performed in mice) for antagonistic activity after p.o. administration of 1.25 mg/kg; type: functional; conditions: route oral
# Mus musculus [13] = experiment: Retention time in (R)-PIA) induced avoidance test (performed in mice) for antagonistic activity after peroral administration of 5 mg/kg; type: functional, organism-based; parameters: dose 5 mg/kg
# Mus musculus [14] = experiment: Acquisition time in (R)-PIA) induced avoidance test (performed in mice) for antagonistic activity after peroral administration of 0.02 mg/kg; conditions: route oral
# Rattus norvegicus [15] = experiment: Acquisition time in Scopolamine induced avoidance test (performed in rat) for antagonistic activity after p.o. administration of 0.08 mg/kg; type: functional; conditions: route oral
# Mus musculus [16] = experiment: Retention time in (R)-PIA) induced avoidance test (performed in mice) for antagonistic activity after p.o. administration of 1.25 mg/kg; type: functional, organism-based; parameters: dose 1.25 mg/kg
# Mus musculus [17] = experiment: Acquisition time in (R)-PIA) induced avoidance test (performed in mice) for antagonistic activity after peroral administration of 5 mg/kg; type: functional; conditions: route oral
# Rattus norvegicus [18] = experiment: Acquisition time in Scopolamine induced avoidance test (performed in rat) for antagonistic activity after peroral administration of 1.25 mg/kg; type: functional; conditions: route oral
# Mus musculus [19] = experiment: Acquisition time in (R)-PIA) induced avoidance test (performed in mice) for antagonistic activity after peroral administration of 0.08 mg/kg; type: functional; conditions: route oral
# Rattus norvegicus [20] = experiment: Acquisition time in Scopolamine induced avoidance test (performed in rat) for antagonistic activity after p.o. administration of 5 mg/kg; type: functional; conditions: route oral
# Mus musculus [21] = experiment: Acquisition time in (R)-PIA) induced avoidance test (performed in mice) for antagonistic activity after peroral administration of 0.02 mg/kg; type: functional; conditions: route oral
# Mus musculus [22] = experiment: Retention time in (R)-PIA) induced avoidance test (performed in mice) for antagonistic activity after peroral administration of 1.25 mg/kg; type: functional, organism-based; parameters: dose 1.25 mg/kg
# Mus musculus [23] = experiment: Retention time in (R)-PIA) induced avoidance test (performed in mice) for antagonistic activity after peroral administration of 0.31 mg/kg; type: functional, organism-based; parameters: dose 0.31 mg/kg
# Rattus norvegicus [24] = experiment: Acquisition time in Scopolamine induced avoidance test (performed in rat) for antagonistic activity after peroral administration of 0.02 mg/kg; type: functional; conditions: route oral
# Mus musculus [25] = experiment: Retention time in (R)-PIA) induced avoidance test (performed in mice) for antagonistic activity after peroral administration of 0.02 mg/kg; type: functional, organism-based; parameters: dose 0.02 mg/kg
# Rattus norvegicus [26] = experiment: Retention time in Scopolamine induced avoidance test (performed in rat) for antagonistic activity after peroral administration of 5 mg/kg (n=15); type: functional, organism-based; parameters: dose 5 mg/kg
# Mus musculus [27] = experiment: Tested for locomotor activity after oral administration of […] for 120 min; type: functional
# Mus musculus [28] = experiment: Tested for locomotor activity after oral administration of 10 mg/kg for 120 min; type: functional
# Mus musculus [29] = experiment: Acquisition time in (R)-PIA) induced avoidance test (performed in mice) for antagonistic activity after peroral administration of 1.25 mg/kg; type: functional; conditions: route oral
# Rattus norvegicus [30] = experiment: Acquisition time in Scopolamine induced avoidance test (performed in rat) for antagonistic activity after peroral administration of 0.08 mg/kg; type: functional; conditions: route oral
# Rattus norvegicus [31] = experiment: Retention time in Scopolamine induced avoidance test (performed in rat) for antagonistic activity after peroral administration of 0.02 mg/kg; type: functional, organism-based; parameters: dose 0.02 mg/kg
# Rattus norvegicus [32] = experiment: Acquisition time in Scopolamine induced avoidance test (performed in rat) for antagonistic activity after peroral administration of 5 mg/kg; type: functional; conditions: route oral
# Mus musculus [33] = experiment: Tested for locomotor activity after oral administration of 5 mg/kg for 120 min; type: functional
smiles,measurement,setting,value
CCCN1C(=O)N2C[C@H](CC)N=C2c2[nH]c(C34CC5CC(CC3C5)C4)nc21,Retention time,Rattus norvegicus [1],40.7 s
same,Retention time,Mus musculus [2],109 s
same,Retention time,Rattus norvegicus [3],20.3 s
same,Retention time,Rattus norvegicus [4],13.3 s
same,Acquisition time,Mus musculus [5],22.9 s
same,Acquisition time,Rattus norvegicus [6],10.9 s
same,Retention time,Mus musculus [7],489 s
same,Acquisition time,Rattus norvegicus [8],7 s
same,Retention time,Rattus norvegicus [9],19.6 s
same,Retention time,Rattus norvegicus [10],81.3 s
same,Retention time,Mus musculus [11],464 s
same,Acquisition time,Mus musculus [12],14.3 s
same,Retention time,Mus musculus [13],431 s
same,Acquisition time,Mus musculus [14],14.3 s
same,Acquisition time,Rattus norvegicus [15],8 s
same,Retention time,Mus musculus [16],351 s
same,Acquisition time,Mus musculus [17],12.9 s
same,Acquisition time,Rattus norvegicus [18],15.1 s
same,Acquisition time,Mus musculus [19],13.4 s
same,Acquisition time,Rattus norvegicus [20],14 s
CCCn1c(=O)c2nc(C(C3CC3)C3CC3)[nH]c2n(CCC)c1=O,Retention time,Rattus norvegicus [1],54.1 s
same,Acquisition time,Mus musculus [21],32.9 s
same,Retention time,Mus musculus [22],262 s
same,Retention time,Mus musculus [23],140 s
same,Acquisition time,Rattus norvegicus [24],29.9 s
same,Retention time,Mus musculus [25],51.3 s
same,Acquisition time,Mus musculus [5],21.7 s
same,Acquisition time,Rattus norvegicus [6],15.6 s
same,Retention time,Rattus norvegicus [26],120 s
same,Locomotor activity,Mus musculus [27],4365 Counts
same,Locomotor activity,Mus musculus [28],5371 Counts
same,Retention time,Rattus norvegicus [10],218 s
same,Acquisition time,Mus musculus [29],22.7 s
same,Retention time,Mus musculus [11],83.9 s
same,Retention time,Mus musculus [13],248 s
same,Acquisition time,Rattus norvegicus [30],19.3 s
same,Retention time,Rattus norvegicus [31],48.8 s
same,Acquisition time,Rattus norvegicus [32],14.7 s
same,Locomotor activity,Mus musculus [33],5631 Counts
same,Acquisition time,Mus musculus [17],28.1 s
same,Acquisition time,Rattus norvegicus [18],20.4 s
same,Acquisition time,Mus musculus [19],46.5 s
